Our source for the IC50 values is US20250215029A1 (Recludix Pharma, Inc., priority 2022, published 2025).

Read-outs that look alike come from different tables or passages of the source.

Assay [1] has as its target T1, Recombinant STAT3 protein (STAT3 (G127-I722)) (Homo sapiens, UniProt P40763).
T1 construct: Recombinant STAT3 protein (STAT3 (G127-I722))
Nature of the assay: STAT3 Fluorescence Polarization (FP) Assay. In kind it is binding. To be noted: probe 5-FAM-GpYLPQTV-NH2 2 nM, 45-minute incubation. The procedure, abridged:
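In this competition FP format, STAT3 residues G127-I722 (25 nM) and 2 nM 5-FAM-GpYLPQTV-NH2 met test compounds for 45 min at room temperature. IC50 values result from fitting mP signal against log concentration by nonlinear regression.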
On the technique in general: In fluorescence polarisation assays a small probe gives low polarisation when free and higher when bound to something large.

For assay [2], the target named is T2, Recombinant STAT6 protein (STAT6 (W123-T658)) (Homo sapiens, UniProt P42226).
T2 construct: Recombinant STAT6 protein (STAT6 (W123-T658))
T2 sequence (P42226 123-658): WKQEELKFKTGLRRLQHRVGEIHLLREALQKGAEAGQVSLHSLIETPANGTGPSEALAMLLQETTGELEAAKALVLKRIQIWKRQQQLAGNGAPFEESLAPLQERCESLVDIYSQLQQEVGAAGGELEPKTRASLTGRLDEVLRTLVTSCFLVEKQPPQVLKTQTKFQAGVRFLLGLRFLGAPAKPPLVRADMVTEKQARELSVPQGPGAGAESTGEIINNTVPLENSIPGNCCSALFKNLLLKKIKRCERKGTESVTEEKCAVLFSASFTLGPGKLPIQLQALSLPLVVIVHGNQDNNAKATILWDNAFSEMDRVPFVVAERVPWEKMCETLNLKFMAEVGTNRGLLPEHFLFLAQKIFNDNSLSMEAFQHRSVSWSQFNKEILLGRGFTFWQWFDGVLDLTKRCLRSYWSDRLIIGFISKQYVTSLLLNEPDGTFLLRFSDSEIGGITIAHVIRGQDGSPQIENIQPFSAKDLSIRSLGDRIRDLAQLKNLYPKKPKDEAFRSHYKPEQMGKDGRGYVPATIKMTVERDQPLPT
Nature of the assay: STAT6 Fluorescence Polarization (FP) Assay. To be noted: probe 5-FAM-Ap[…]-NH2 2 nM, 45-minute incubation. The format is binding. The procedure, abridged: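 Fluorescence polarization (mP) read-out: 250 nM STAT6 (W123-T658) plus 2 nM 5-FAM phosphotyrosine peptide, 45 min, room temperature, 1% DMSO. IC50 by nonlinear fit of mP against log compound concentration.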

Where [3] appears, read: STAT3 (G127-I722) 25 nM, read-out: STAT3 (FP assay IC50 class).
Where [4] appears, read: STAT6 (W123-T658) 250 nM, read-out: STAT6 (FP assay IC50 class).
[5] abbreviates: STAT3 25 nM, read-out: STAT3 (FP assay IC50).
Where [6] appears, read: STAT6 250 nM, read-out: STAT6 (FP assay IC50).

T1 sequence (P40763 127-722): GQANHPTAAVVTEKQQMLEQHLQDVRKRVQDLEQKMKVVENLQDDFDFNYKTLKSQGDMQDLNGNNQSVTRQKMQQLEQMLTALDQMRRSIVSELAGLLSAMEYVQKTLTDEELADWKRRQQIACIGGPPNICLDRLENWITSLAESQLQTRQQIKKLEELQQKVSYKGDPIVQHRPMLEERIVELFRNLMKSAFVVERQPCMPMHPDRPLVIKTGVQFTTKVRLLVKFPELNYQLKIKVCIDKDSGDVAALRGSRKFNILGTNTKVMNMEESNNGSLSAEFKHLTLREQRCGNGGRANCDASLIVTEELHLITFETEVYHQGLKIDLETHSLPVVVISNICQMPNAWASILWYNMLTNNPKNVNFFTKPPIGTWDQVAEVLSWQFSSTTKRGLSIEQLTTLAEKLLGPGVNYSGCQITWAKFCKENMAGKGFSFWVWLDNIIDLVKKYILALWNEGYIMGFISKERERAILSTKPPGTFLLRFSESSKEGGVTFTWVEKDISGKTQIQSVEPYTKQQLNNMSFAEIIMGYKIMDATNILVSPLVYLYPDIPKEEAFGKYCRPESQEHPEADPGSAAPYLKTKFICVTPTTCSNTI

With `COc1ncccc1[C@@H]1CN(C(=O)[C@@H]2CC[C@@H]3CCCC[C@H](NC(=O)c4cc5cc(C(F)P(=O)(O)O)ccc5s4)C(=O)N32)C[C@H]1C#N` (relative stereo) [Compound 230, ((2-(((3S,6S,10aS)-3-((rel-trans)-3-cyano-4-(2-methoxypyridin-3-yl)pyrrolidine-1-carbonyl)-5-oxodecahydropyrrolo[1,2-a]azocin-6-yl)carbamoyl)benzo[b]thiophen-5-yl)fluoromethyl)phosphonic acid], the IC50 is 1000 to 10000 nM in assay [1] (setting [3]) and at most 300 nM in assay [2] (setting [4]).
The matching figures for `CNC(=O)N1CC[C@@H](NC(=O)[C@@H]2CC[C@@H]3CCCC[C@H](NC(=O)c4cc5cc(C(F)P(=O)(O)O)ccc5s4)C(=O)N32)C1` (stereo partly drawn) [Compound 530, (fluoro(2-(((3S,6S,10aS)-3-(((R)-1-(methylcarbamoyl)pyrrolidin-3-yl)carbamoyl)-5-oxodecahydropyrrolo[1,2-a]azocin-6-yl)carbamoyl)benzo[b]thiophen-5-yl)methyl)phosphonic acid]: 100 to 1000 nM and 3000 to 30000 nM.
For `CC(=O)N1C[C@H](NC(=O)[C@@H]2CC[C@@H]3CCCC[C@H](NC(=O)c4cc5cc(C(F)(F)P(=O)(O)O)ccc5s4)C(=O)N32)[C@@H](O)C1` [Compound 116, ((2-(((3S, 6S,10aS)-3-(((3S,4S)-1-acetyl-4-hydroxypyrrolidin-3-yl)carbamoyl)-5-oxodecahydro-pyrrolo [1,2-a]azocin-6-yl)carbamoyl)benzo[b]thiophen-5-yl)difluoromethyl) phosphonic acid], the IC50 lay in the range of 100 to 1000 nM in assay [1] (setting [5]) and 300 to 3000 nM in assay [2] (setting [6]).
With `O=C(N[C@H]1CCC[C@H]2CC[C@@H](C(=O)N3CC(c4nc5ccccc5[nH]4)C3)N2C1=O)c1cc2cc(C(F)(F)P(=O)(O)O)ccc2s1` [Compound 43, ((2-(((3S,6S,9aS)-3-(3-(1H-benzo[d]imidazol-2-yl)azetidine-1-carbonyl)-5-oxooctahydro-1H-pyrrolo[1,2-a]azepin-6-yl)carbamoyl)benzo[b]thiophen-5-yl)difluoromethyl) phosphonic acid], the IC50 is under 100 nM in assay [1] (setting [5]) and 300 to 3000 nM in assay [2] (setting [6]).
Take `COC1(c2cnccc2C)CN(C(=O)[C@@H]2CC[C@@H]3CCC[C@H](NC(=O)c4cc5cc(C(F)(F)P(=O)(O)O)ccc5s4)C(=O)N32)C1` [Compound 722, (difluoro(2-(((3S,6S,9aS)-3-(3-methoxy-3-(4-methylpyridin-3-yl)azetidine-1-carbonyl)-5-oxooctahydro-1H-pyrrolo[1,2-a]azepin-6-yl)carbamoyl)benzo [b]thiophen-5-yl)methyl) phosphonic acid]: the values for the IC50 in assay [1] (setting [3]) and in assay [2] (setting [4]) were 100 to 1000 nM and 3000 to 30000 nM, respectively.
For `N#C[C@@H]1[C@@H](c2cncc(Cl)c2)CN(C(=O)[C@@H]2CC[C@@H]3CCC[C@H](NC(=O)c4cc5cc([C@H](F)P(=O)(O)O)ccc5s4)C(=O)N32)C12CC2` (single isomer, unassigned) [Compound 841], the IC50 in assay [1] (setting [3]) lay in the range of 1000 to 10000 nM; in assay [2] (setting [4]), 300 to 3000 nM.
The like results for `O=C(N[C@H]1CCC[C@H]2CC[C@@H](C(=O)N3CC(c4cc(O)ccn4)C3)N2C1=O)c1cc2cc(CP(=O)(O)O)ccc2s1` [Compound 543, ((2-(((3S,6S,9aS)-3-(3-(4-hydroxypyridin-2-yl)azetidine-1-carbonyl)-5-oxooctahydro-1H-pyrrolo[1,2-a]azepin-6-yl)carbamoyl)benzo[b]thiophen-5-yl)methyl)phosphonic acid] were, in that order, 1000 to 10000 nM and 3000 to 30000 nM.
The matching figures for `O=C(N[C@H]1CCCC[C@H]2CC[C@@H](C(=O)NC3CN(C(=O)OCc4ccccc4)C3)N2C1=O)c1cc2cc(C(F)P(=O)(O)O)ccc2s1` (stereo partly drawn) [Compound 524, ((2-(((3S,6S,10aS)-3-((1-((benzyloxy)carbonyl)azetidin-3-yl)carbamoyl)-5-oxodecahydropyrrolo[1,2-a]azocin-6-yl)carbamoyl)benzo[b]thiophen-5-yl)fluoromethyl)phosphonic acid]: 100 to 1000 nM and 300 to 3000 nM.
Take `O=C(N[C@H]1CCCC[C@H]2CC[C@@H](C(=O)Nc3ccc4c(c3)CCS4(=O)=O)N2C1=O)c1cc2cc(C(F)(F)P(=O)(O)O)ccc2s1` [Compound 57, ((2-(((3S,6S,10aS)-3-((1,1-dioxido-2,3-dihydrobenzo[b]thiophen-5-yl)carbamoyl)-5-oxodecahydropyrrolo [1,2-a]azocin-6-yl)carbamoyl)benzo[b]thiophen-5-yl)difluoromethyl) phosphonic acid]: the IC50 in assay [1] (setting [5]) fell in the range of 100 to 1000 nM; in assay [2] (setting [6]), 300 to 3000 nM.
As to `N#C[C@@H]1CN(C(=O)[C@@H]2CCC[C@@H]3CCC[C@H](NC(=O)c4cc5cc(C(F)P(=O)(O)O)ccc5s4)C(=O)N32)C[C@H]1c1ccccc1` (relative stereo) [Compound 551, ((2-(((4S,7S,10aS)-4-((rel-trans)-3-cyano-4-phenylpyrrolidine-1-carbonyl)-6-oxodecahydropyrido[1,2-a]azepin-7-yl)carbamoyl)benzo[b]thiophen-5-yl)fluoromethyl)phosphonic acid], the IC50 in assay [1] (setting [3]) is 1000 to 10000 nM; in assay [2] (setting [4]), at most 300 nM.
The matching figures for `CC(C)n1ccc(N2C(=O)N(C(=O)[C@@H]3CC[C@@H]4CCCC[C@H](NC(=O)c5cc6cc(C(F)P(=O)(O)O)ccc6s5)C(=O)N43)C3(CC3)C2=O)cc1=O` (stereo partly drawn) [Compound 586, (fluoro(2-(((3S,6S,10aS)-3-(6-(1-isopropyl-2-oxo-1,2-dihydropyridin-4-yl)-5,7-dioxo-4,6-diazaspiro[2.4]heptane-4-carbonyl)-5-oxodecahydropyrrolo[1,2-a]azocin-6-yl)carbamoyl)benzo[b]thiophen-5-yl)methyl)phosphonic acid]: 1000 to 10000 nM and 300 to 3000 nM.
For `O=C(N[C@H]1C[C@H](O)CC[C@H]2CC[C@@H](C(=O)N3CC(C(=O)N4CCOCC4)C3)N2C1=O)c1cc2cc(C(F)(F)P(=O)(O)O)ccc2s1` [Compound 3, (difluoro(2-(((3S,6S,8R, 10aR)-8-hydroxy-3-(3-(morpholine-4-carbonyl)azetidine-1-carbonyl)-5-oxodeca-hydropyrrolo[1,2-a]azocin-6-yl)carbamoyl)benzo[b]thiophen-5-yl)methyl)phosphonic acid], the IC50 lay in the range of 100 to 1000 nM in assay [1] (setting [5]) and 3000 to 30000 nM in assay [2] (setting [6]).
Turning to `COCC(=O)NC1(c2ccccn2)CN(C(=O)[C@@H]2CC[C@@H]3CCCC[C@H](NC(=O)c4cc5cc(C(F)P(=O)(O)O)ccc5s4)C(=O)N32)C1` (stereo partly drawn) [Compound 567, (fluoro(2-(((3S,6S,10aS)-3-(3-(2-methoxyacetamido)-3-(pyridin-2-yl)azetidine-1-carbonyl)-5-oxodecahydropyrrolo[1,2-a]azocin-6-yl)carbamoyl)benzo[b]thiophen-5-yl)methyl)phosphonic acid], the IC50 in assay [1] (setting [3]) is 100 to 1000 nM; in assay [2] (setting [4]) it was 3000 to 30000 nM.
Consider `O=C(N[C@H]1CCCC[C@H]2CC[C@@H](C(=O)N3CCC(c4ccn(C5CC5)c(=O)c4)C3)N2C1=O)c1ccc2ccc(C(F)P(=O)(O)O)cc2c1` (stereo partly drawn) [Compound 906, ((7-(((3S,6S,10aS)-3-(3-(1-cyclopropyl-2-oxo-1,2-dihydropyridin-4-yl)pyrrolidine-1-carbonyl)-5-oxodecahydropyrrolo[1,2-a]azocin-6-yl)carbamoyl)naphthalen-2-yl)fluoromethyl) phosphonic acid], for which the IC50 in assay [1] (setting [3]) is 1000 to 10000 nM; in assay [2] (setting [4]), 300 to 3000 nM.
The matching figures for `C/C1=C/[C@H]2CC[C@@H](C(=O)N3CC(c4cnccc4C)C3)N2C(=O)[C@@H](NC(=O)c2cc3cc(CP(=O)(O)O)ccc3s2)CC1` [Compound 644, ((2-(((3S,6S,10aR,Z)-9-methyl-3-(3-(4-methylpyridin-3-yl)azetidine-1-carbonyl)-5-oxo-1,2,3,5,6,7,8,10a-octahydropyrrolo[1,2-a]azocin-6-yl)carbamoyl)benzo [b]thiophen-5-yl)methyl) phosphonic acid]: 100 to 1000 nM and 3000 to 30000 nM.
On to `Cc1cncnc1C1CN(C(=O)[C@@H]2CC[C@@H]3CCC[C@H](NC(=O)c4cc5cc(CP(=O)(O)O)ccc5s4)C(=O)N32)C1` [Compound 650, ((2-(((3S,6S,9aS)-3-(3-(5-methylpyrimidin-4-yl)azetidine-1-carbonyl)-5-oxooctahydro-1H-pyrrolo[1,2-a]azepin-6-yl)carbamoyl)benzo [b]thiophen-5-yl)methyl) phosphonic acid], for which the IC50 in assay [1] (setting [3]) lay in the range of 1000 to 10000 nM; in assay [2] (setting [4]), 3000 to 30000 nM.

A word on the IC50: it is the concentration that inhibits the measured activity by half.
